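1) Cells in 96-well plates. 2) Compound, 48 h, 5 concentrations. 3) Linear interpolation between surrounding doses. 4) Unreached endpoint = highest concentration. TGI denotes the concentration required for complete inhibition of growth.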
How the values were obtained:
Assay in all cases: inhibition of tumour cell growth, NCI panel, 48 h
[1] = tested on: NCI/ADR-RES ovarian
[2] = tested on: NCI-H226 lung
[3] = tested on: A498 renal
[4] = tested on: K-562 leukemia
[5] = tested on: CCRF-CEM leukemia
[6] = tested on: MOLT-4 leukemia
[7] = tested on: OVCAR-5 ovarian
[8] = tested on: SW-620 colon
[9] = tested on: MDA-MB-435
[10] = tested on: MCF7 breast
[11] = tested on: MALME-3M melanoma
[12] = tested on: HL-60(TB) leukemia
[13] = tested on: SN12C renal
[14] = tested on: HT29 colon
[15] = tested on: SF-295 CNS
[16] = tested on: U251 CNS
[17] = tested on: NCI-H23 lung
[18] = tested on: OVCAR-4 ovarian
[19] = tested on: 786-0 renal
[20] = tested on: HCT-15 colon
[21] = tested on: HCT-116 colon
[22] = tested on: HS 578T breast
[23] = tested on: OVCAR-3 ovarian
[24] = tested on: A549 NSCLC
[25] = tested on: NCI-H460 lung
[26] = tested on: TK-10 renal
[27] = tested on: PC-3 prostate
[28] = tested on: HOP-62 NSCLC
[29] = tested on: OVCAR-8 ovarian
[30] = tested on: SNB-75 CNS
[31] = tested on: SK-MEL-5 melanoma
[32] = tested on: EKVX NSCLC
[33] = tested on: DU-145 prostate
[34] = tested on: RPMI-8226 leukemia
[35] = tested on: IGROV1 ovarian
[36] = tested on: MDA-N
[37] = tested on: UACC-257 melanoma
[38] = tested on: SF-539 CNS
[39] = tested on: ACHN renal
[40] = tested on: NCI-H522 lung
[41] = tested on: SNB-19 CNS
[42] = tested on: LOX IMVI melanoma
[43] = tested on: SK-MEL-28 melanoma
[44] = tested on: HOP-92 NSCLC
[45] = tested on: SR leukemia
[46] = tested on: SF-268 CNS
[47] = tested on: HCC-2998 colon

Question: Which TGI [1] does the source give for O=[N+]([O-])c1cccnc1NCC1(CO)CCCC1 here?
Answer: 49 µM

Question: What about the TGI [2] of the same compound?
Answer: 68.4 µM

Question: What about the TGI [3] of the same compound?
Answer: > 100 µM

Question: What about the TGI [4] of the same compound?
Answer: 53.2 µM

Question: And the TGI [5]?
Answer: > 100 µM

Question: And the TGI [6]?
Answer: 40.5 µM

Question: What about the TGI [7] of the same compound?
Answer: 87.1 µM

Question: What about the TGI [8] of the same compound?
Answer: 54.4 µM

Question: And the TGI [9]?
Answer: 44.1 µM

Question: And the TGI [10]?
Answer: > 100 µM

Question: What about the TGI [11] of the same compound?
Answer: 37.5 µM

Question: What about the TGI [12] of the same compound?
Answer: 50.3 µM

Question: And the TGI [13]?
Answer: 53 µM

Question: What about the TGI [14] of the same compound?
Answer: 34.8 µM

Question: And the TGI [15]?
Answer: 56.2 µM

Question: And the TGI [16]?
Answer: 31.2 µM

Question: What about the TGI [17] of the same compound?
Answer: > 100 µM

Question: What about the TGI [18] of the same compound?
Answer: > 100 µM

Question: And the TGI [19]?
Answer: 80.1 µM

Question: And the TGI [20]?
Answer: 37.7 µM

Question: And the TGI [21]?
Answer: 67 µM

Question: And the TGI [22]?
Answer: 54 µM

Question: And the TGI [23]?
Answer: 46 µM

Question: And the TGI [24]?
Answer: > 100 µM

Question: And the TGI [25]?
Answer: 47.6 µM

Question: What about the TGI [26] of the same compound?
Answer: 79.3 µM

Question: And the TGI [27]?
Answer: 37.8 µM

Question: What about the TGI [28] of the same compound?
Answer: > 100 µM

Question: What about the TGI [29] of the same compound?
Answer: 50.7 µM

Question: What about the TGI [30] of the same compound?
Answer: 34.9 µM

Question: What about the TGI [31] of the same compound?
Answer: 30.9 µM

Question: And the TGI [32]?
Answer: 76.9 µM

Question: What about the TGI [33] of the same compound?
Answer: > 100 µM

Question: And the TGI [34]?
Answer: 59.1 µM

Question: What about the TGI [35] of the same compound?
Answer: 38.7 µM

Question: And the TGI [36]?
Answer: 42.3 µM

Question: And the TGI [37]?
Answer: 44.3 µM

Question: What about the TGI [38] of the same compound?
Answer: 49.7 µM

Question: And the TGI [39]?
Answer: 70.1 µM

Question: What about the TGI [40] of the same compound?
Answer: 45.9 µM

Question: What about the TGI [41] of the same compound?
Answer: > 100 µM

Question: And the TGI [42]?
Answer: 30.3 µM

Question: What about the TGI [43] of the same compound?
Answer: 51.3 µM

Question: What about the TGI [44] of the same compound?
Answer: 54.1 µM

Question: And the TGI [45]?
Answer: 64.2 µM

Question: What about the TGI [46] of the same compound?
Answer: 70.7 µM

Question: What about the TGI [47] of the same compound?
Answer: 32.8 µM
